Experimental data published in paper PMC6429214, “Design, Synthesis and Biological Evaluation of Isoxazole-Based CK1 Inhibitors Modified with Chiral Pyrrolidine Scaffolds” (Molecules, 2019).

Tests used:
Assay in all cases: 33PanQinase panel
Type in all cases: biochemical
AXL = biological target: T1, AXL (Homo sapiens, UniProt P30530); details: read-out: Residual Activity (%)
T1 construct: purchased ProQinase
Protocol: (§1) Figure 5 Dendrogram representation of the selectivity profile of 29d at a concentration of 1 μM in a panel of 320 wild-type kinases (ProQinase, Freiburg, Germany). The residual kinase activity was determined compared to DMSO control. Images were generated using TREEspot Software Tool, DISCOVERX CORPORATION 2010.
(§2) Figure S1. X-ray crystal structure of intermediate compound 25d (ORTEP drawing with ellipsoids at 30% probability). CCDC 1589043 contains the supplementary crystallographic data for this paper. The data can be obtained free of charge from The Cambridge Crystallographic Data Centre via www.ccdc.cam.ac.uk/structures.
(§3) Table S1 Data collection, structure refinement and Ramachrandran plot results of protein crystallization of CK1δ in complex with compound 30a and 30b, respectively.
(§4) Root-mean-square deviations
(§5) Additionally allowed 2.6 2.2
(§6) Table S2. Selectivity profile of compound 29d. The inhibitor has been screened at a concentration of 1 µM over a panel of 320 wild-type protein kinases by ProQinase GmbH (Freiburg, Germany) using an activity-based radiometric 33PanQinase® assay. Results are presented as percentage of residual kinase activity relative to […]
(§7) control. The final DMSO concentration was 1 % in each reaction-mix. Classification of protein kinase families refers to Manning et al. (Manning, G.; Whyte, D. B.; Martinez, R.; Hunter, T.; Sudarsanam, S. The Protein Kinase Complement of the Human Genome. Science 2002, 298, 1912–1934): AGC = containing PKA, PKG, PKC families; […] = containing Cdk, MAPK, GSK3, CLK families; STE = homologs of yeast sterile 7, sterile 11, sterile 20 kinases; TK = tyrosine kinase; TKL = tyrosine kinase-like.
(§8) Kinase name Kinase family Residual Activity (%)

CAMK1D = biological target: T2, CAMK1D (Homo sapiens, UniProt Q8IU85); details: read-out: Residual Activity (%)
T2 construct: purchased ProQinase
Protocol: as §1, §2, §3, §4, §5, §6, §7, §8

CDC42BPB = biological target: T3, CDC42BPB (Homo sapiens, UniProt Q9Y5S2); details: read-out: Residual Activity (%)
T3 construct: purchased ProQinase
Protocol: as §1, §2, §3, §4, §5, §6, §7, §8

CDK16/CycY = biological target: T4, CDK16/CycY (Homo sapiens, UniProt Q00536); details: read-out: Residual Activity (%)
T4 construct: purchased ProQinase
Protocol: as §1, §2, §3, §4, §5, §6, §7, §8

CDK3/CycC = biological target: T5, CDK3/CycC (Homo sapiens, UniProt Q00526); details: read-out: Residual Activity (%)
T5 construct: purchased ProQinase
Protocol: as §1, §2, §3, §4, §5, §6, §7, §8

CDK4/CycD1 = biological target: T6, CDK4/CycD1 (Homo sapiens, UniProt P11802); details: CDK4/CycD1, 1 µM; read-out: Residual Activity (%)
T6 construct: purchased ProQinase
T6 sequence (P11802 whole entry): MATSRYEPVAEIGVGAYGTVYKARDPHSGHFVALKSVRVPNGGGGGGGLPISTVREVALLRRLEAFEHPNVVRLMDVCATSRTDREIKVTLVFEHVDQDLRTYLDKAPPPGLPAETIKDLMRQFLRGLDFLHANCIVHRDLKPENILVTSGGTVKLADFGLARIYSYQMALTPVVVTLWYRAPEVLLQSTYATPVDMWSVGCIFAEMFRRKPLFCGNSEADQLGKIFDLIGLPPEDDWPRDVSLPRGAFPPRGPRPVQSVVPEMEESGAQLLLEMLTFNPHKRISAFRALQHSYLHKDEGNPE
T6 sequence (P24385 whole entry partner): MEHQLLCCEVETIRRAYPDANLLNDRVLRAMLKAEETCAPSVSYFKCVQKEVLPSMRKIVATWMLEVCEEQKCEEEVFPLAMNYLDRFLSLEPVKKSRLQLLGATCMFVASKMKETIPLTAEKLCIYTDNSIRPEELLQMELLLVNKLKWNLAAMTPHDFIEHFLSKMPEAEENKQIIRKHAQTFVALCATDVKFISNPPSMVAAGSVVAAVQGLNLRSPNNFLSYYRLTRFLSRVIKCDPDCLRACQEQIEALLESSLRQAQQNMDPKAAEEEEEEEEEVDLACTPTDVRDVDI
Protocol: as §1, §2, §3, §4, §5, §6, §7, §8

CDK5/p25NCK = biological target: T7, CDK5/p25NCK (Homo sapiens, UniProt Q00535); details: read-out: Residual Activity (%)
T7 construct: purchased ProQinase
Protocol: as §1, §2, §3, §4, §5, §6, §7, §8

CDK7/CycH/MAT1 = biological target: T8, CDK7/CycH/MAT1 (Homo sapiens, UniProt P50613); details: CDK7/CycH/MAT1, 1 µM; read-out: Residual Activity (%)
T8 construct: purchased ProQinase
Protocol: as §1, §2, §3, §4, §5, §6, §7, §8

CDK8/CycC = biological target: T9, CDK8/CycC (Homo sapiens, UniProt P49336); details: read-out: Residual Activity (%)
T9 construct: purchased ProQinase
Protocol: as §1, §2, §3, §4, §5, §6, §7, §8

CK2-alpha2 = biological target: T10, CK2-alpha2 (Homo sapiens, UniProt P19784); details: CK2-alpha2, 1 µM; read-out: Residual Activity (%)
T10 construct: purchased ProQinase
Protocol: as §1, §2, §3, §4, §5, §6, §7, §8

COT = biological target: T11, COT (Homo sapiens, UniProt P41279); details: read-out: Residual Activity (%)
T11 construct: purchased ProQinase
T11 sequence (P41279 whole entry): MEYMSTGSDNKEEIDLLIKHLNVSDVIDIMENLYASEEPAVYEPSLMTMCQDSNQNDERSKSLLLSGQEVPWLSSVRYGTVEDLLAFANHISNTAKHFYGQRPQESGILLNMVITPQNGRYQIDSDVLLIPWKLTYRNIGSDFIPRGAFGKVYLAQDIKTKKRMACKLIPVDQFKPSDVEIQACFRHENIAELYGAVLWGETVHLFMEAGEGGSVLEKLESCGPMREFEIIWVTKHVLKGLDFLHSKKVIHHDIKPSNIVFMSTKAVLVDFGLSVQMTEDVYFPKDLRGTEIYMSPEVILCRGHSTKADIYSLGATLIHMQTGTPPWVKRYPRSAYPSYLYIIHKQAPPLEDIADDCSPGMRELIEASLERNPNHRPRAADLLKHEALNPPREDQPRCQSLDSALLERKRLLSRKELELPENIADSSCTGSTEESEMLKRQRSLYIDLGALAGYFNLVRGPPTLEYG
Protocol: as §1, §2, §3, §4, §5, §6, §7, §8

DMPK = biological target: T12, DMPK (Homo sapiens, UniProt Q09013); details: read-out: Residual Activity (%)
T12 construct: purchased ProQinase
T12 sequence (Q09013 whole entry): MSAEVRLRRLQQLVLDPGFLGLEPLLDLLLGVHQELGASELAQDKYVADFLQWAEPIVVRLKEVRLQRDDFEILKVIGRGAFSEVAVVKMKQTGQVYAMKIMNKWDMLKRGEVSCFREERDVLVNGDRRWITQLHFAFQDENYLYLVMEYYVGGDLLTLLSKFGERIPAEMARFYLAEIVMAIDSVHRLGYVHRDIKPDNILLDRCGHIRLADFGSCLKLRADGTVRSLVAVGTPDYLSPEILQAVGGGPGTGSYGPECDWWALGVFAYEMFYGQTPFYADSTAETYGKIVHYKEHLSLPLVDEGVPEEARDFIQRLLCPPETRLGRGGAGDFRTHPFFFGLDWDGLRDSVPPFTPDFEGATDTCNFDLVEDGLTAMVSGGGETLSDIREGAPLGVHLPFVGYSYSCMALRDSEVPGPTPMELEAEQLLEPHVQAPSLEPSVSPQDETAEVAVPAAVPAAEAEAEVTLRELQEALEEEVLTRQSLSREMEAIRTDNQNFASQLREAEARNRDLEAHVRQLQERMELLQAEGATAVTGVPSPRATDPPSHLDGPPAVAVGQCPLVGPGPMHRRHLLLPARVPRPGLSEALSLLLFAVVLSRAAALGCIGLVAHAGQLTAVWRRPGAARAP
Protocol: as §1, §2, §3, §4, §5, §6, §7, §8

ERBB4 = biological target: T13, ERBB4 (Homo sapiens, UniProt Q15303); details: ERBB4, 1 µM; read-out: Residual Activity (%)
T13 construct: purchased ProQinase
Protocol: as §1, §2, §3, §4, §5, §6, §7, §8

ERK7 = biological target: T14, ERK7 (Homo sapiens, UniProt Q8TD08); details: ERK7, 1 µM; read-out: Residual Activity (%)
T14 construct: purchased ProQinase
Protocol: as §1, §2, §3, §4, §5, §6, §7, §8

FGF-R2 = biological target: T15, FGF-R2 (Homo sapiens, UniProt P21802); details: FGF-R2, 1 µM; read-out: Residual Activity (%)
T15 construct: purchased ProQinase
Protocol: as §1, §2, §3, §4, §5, §6, §7, §8

GRK7 = biological target: T16, GRK7 (Homo sapiens, UniProt Q8WTQ7); details: GRK7, 1 µM; read-out: Residual Activity (%)
T16 construct: purchased ProQinase
Protocol: as §1, §2, §3, §4, §5, §6, §7, §8

HRI = biological target: T17, HRI (Homo sapiens, UniProt Q9BQI3); details: read-out: Residual Activity (%)
T17 construct: purchased ProQinase
T17 sequence (Q9BQI3 whole entry): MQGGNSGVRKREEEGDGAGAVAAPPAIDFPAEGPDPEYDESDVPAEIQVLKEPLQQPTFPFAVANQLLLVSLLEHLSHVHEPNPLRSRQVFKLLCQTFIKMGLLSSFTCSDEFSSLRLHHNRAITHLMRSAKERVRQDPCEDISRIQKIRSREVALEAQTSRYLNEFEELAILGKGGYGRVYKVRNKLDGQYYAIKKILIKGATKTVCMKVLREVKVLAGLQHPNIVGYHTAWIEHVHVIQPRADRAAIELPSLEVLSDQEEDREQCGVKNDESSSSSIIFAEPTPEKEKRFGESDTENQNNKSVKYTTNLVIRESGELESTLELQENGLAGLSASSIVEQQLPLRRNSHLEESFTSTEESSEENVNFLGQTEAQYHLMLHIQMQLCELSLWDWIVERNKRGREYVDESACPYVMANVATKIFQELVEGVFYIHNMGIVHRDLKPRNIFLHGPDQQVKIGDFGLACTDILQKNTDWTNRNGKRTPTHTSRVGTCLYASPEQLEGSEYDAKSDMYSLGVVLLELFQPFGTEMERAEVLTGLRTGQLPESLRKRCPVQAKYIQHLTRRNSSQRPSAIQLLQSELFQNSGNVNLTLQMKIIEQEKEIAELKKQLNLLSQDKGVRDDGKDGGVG
Protocol: as §1, §2, §3, §4, §5, §6, §7, §8

IRAK4 (untagged) = biological target: T18, IRAK4 (untagged) (Homo sapiens, UniProt Q9NWZ3); details: read-out: Residual Activity (%)
T18 construct: purchased ProQinase
Protocol: as §1, §2, §3, §4, §5, §6, §7, §8

JAK2 = biological target: T19, JAK2 (Homo sapiens, UniProt O60674); details: JAK2, 1 µM; read-out: Residual Activity (%)
T19 construct: purchased ProQinase
Protocol: as §1, §2, §3, §4, §5, §6, §7, §8

LYN = biological target: T20, LYN (Homo sapiens, UniProt P07948); details: read-out: Residual Activity (%)
T20 construct: purchased ProQinase
Protocol: as §1, §2, §3, §4, §5, §6, §7, §8

MST4 = biological target: T21, MST4 (Homo sapiens, UniProt Q9P289); details: MST4, 1 µM; read-out: Residual Activity (%)
T21 construct: purchased ProQinase
T21 sequence (Q9P289 whole entry): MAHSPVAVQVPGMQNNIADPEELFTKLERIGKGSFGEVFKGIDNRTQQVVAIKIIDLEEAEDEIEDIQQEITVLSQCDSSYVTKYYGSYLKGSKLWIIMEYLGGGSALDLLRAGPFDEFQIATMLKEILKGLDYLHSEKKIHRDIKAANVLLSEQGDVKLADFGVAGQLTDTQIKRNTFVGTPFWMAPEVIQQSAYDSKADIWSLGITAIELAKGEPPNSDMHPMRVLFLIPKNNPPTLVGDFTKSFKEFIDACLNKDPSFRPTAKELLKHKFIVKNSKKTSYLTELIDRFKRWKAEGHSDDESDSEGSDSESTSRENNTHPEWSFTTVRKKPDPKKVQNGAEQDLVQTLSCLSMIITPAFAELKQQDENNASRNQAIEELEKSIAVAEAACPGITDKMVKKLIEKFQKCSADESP
Protocol: as §1, §2, §3, §4, §5, §6, §7, §8

NIK = biological target: T22, NIK (Homo sapiens, UniProt Q99558); details: read-out: Residual Activity (%)
T22 construct: purchased ProQinase
Protocol: as §1, §2, §3, §4, §5, §6, §7, §8

PKC-beta1 = biological target: T23, PKC-beta1 (Homo sapiens, UniProt P05771); details: PKC-beta1, 1 µM; read-out: Residual Activity (%)
T23 construct: purchased ProQinase
Protocol: as §1, §2, §3, §4, §5, §6, §7, §8

PKC-nu = biological target: T24, PKC-nu (Homo sapiens, UniProt O94806); details: read-out: Residual Activity (%)
T24 construct: purchased ProQinase
Protocol: as §1, §2, §3, §4, §5, §6, §7, §8

PRK1 = biological target: T25, PRK1 (Homo sapiens, UniProt Q16512); details: PRK1, 1 µM; read-out: Residual Activity (%)
T25 construct: purchased ProQinase
Protocol: as §1, §2, §3, §4, §5, §6, §7, §8

ROCK1 = biological target: T26, ROCK1 (Homo sapiens, UniProt Q13464); details: ROCK1, 1 µM; read-out: Residual Activity (%)
T26 construct: purchased ProQinase
Protocol: as §1, §2, §3, §4, §5, §6, §7, §8

TLK1 = biological target: T27, TLK1 (Homo sapiens, UniProt Q9UKI8); details: TLK1, 1 µM; read-out: Residual Activity (%)
T27 construct: purchased ProQinase
Protocol: as §1, §2, §3, §4, §5, §6, §7, §8

WNK2 = biological target: T28, WNK2 (Homo sapiens, UniProt Q9Y3S1); details: WNK2, 1 µM; read-out: Residual Activity (%)
T28 construct: purchased ProQinase
T28 sequence (Q9Y3S1 whole entry): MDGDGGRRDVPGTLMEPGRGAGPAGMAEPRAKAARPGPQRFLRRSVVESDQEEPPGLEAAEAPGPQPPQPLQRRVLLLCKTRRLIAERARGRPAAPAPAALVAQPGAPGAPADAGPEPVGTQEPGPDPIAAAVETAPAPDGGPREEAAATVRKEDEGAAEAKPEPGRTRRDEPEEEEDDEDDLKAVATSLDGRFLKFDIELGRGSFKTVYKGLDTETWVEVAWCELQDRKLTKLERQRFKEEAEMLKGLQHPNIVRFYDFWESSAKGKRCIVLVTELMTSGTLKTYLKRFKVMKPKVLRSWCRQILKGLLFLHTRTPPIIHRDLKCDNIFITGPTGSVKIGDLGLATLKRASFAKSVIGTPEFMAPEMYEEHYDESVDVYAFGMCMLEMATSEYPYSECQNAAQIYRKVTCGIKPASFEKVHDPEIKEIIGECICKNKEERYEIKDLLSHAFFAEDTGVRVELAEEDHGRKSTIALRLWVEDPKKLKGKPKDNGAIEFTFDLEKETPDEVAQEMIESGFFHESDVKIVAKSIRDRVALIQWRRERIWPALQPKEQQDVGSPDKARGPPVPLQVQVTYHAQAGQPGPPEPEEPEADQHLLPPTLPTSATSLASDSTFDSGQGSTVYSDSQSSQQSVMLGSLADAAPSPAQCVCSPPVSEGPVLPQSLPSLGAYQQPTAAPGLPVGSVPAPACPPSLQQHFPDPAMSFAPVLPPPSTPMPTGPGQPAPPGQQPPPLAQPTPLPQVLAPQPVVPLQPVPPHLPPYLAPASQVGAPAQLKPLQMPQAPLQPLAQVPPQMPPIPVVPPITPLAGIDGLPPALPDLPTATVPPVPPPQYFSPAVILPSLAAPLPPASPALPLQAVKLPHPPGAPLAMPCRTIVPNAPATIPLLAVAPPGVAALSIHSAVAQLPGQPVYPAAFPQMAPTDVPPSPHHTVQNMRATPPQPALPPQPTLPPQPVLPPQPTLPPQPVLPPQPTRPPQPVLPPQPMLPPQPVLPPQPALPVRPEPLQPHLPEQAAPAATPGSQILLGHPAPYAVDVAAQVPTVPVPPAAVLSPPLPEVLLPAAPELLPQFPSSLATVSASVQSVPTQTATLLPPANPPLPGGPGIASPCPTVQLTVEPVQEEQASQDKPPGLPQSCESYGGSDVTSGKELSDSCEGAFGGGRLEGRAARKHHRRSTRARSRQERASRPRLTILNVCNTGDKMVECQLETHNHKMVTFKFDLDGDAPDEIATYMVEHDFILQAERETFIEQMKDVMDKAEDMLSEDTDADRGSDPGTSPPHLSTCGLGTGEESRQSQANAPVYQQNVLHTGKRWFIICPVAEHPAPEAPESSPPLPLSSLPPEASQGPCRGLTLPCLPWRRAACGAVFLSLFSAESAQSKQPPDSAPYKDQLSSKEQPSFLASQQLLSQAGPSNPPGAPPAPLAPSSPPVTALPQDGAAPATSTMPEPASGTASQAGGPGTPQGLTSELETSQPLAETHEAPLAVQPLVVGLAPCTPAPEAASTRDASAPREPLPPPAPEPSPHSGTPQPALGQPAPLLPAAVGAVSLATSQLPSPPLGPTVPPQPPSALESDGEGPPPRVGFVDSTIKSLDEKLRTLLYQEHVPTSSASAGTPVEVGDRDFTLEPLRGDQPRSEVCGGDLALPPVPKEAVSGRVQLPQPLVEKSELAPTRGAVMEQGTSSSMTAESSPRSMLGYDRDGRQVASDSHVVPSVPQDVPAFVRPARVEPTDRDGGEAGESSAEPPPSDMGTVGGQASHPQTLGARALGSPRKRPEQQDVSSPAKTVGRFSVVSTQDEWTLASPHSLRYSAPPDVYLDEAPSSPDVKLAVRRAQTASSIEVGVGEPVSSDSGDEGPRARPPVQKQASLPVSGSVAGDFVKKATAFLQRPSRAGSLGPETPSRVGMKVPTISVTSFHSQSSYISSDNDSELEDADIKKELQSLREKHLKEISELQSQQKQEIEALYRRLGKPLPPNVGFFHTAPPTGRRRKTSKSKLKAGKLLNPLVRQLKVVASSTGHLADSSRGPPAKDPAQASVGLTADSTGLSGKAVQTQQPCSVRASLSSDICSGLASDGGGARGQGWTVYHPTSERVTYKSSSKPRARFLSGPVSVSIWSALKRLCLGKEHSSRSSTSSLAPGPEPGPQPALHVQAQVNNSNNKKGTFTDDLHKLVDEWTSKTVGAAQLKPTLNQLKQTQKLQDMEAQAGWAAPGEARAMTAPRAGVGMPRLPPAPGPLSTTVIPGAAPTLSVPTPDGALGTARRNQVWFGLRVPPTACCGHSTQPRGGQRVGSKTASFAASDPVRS
Protocol: as §1, §2, §3, §4, §5, §6, §7, §8

mTOR = biological target: T29, mTOR (Homo sapiens, UniProt P42345); details: read-out: Residual Activity (%)
T29 construct: purchased ProQinase
Protocol: as §1, §2, §3, §4, §5, §6, §7, §8

## COc1ccc(-c2cc(C(=O)Nc3cc(-c4c(-c5ccc(F)cc5)noc4C(C)C)ccn3)n(CC3NCC(O)C3O)c2)cc1 (centres unmarked) [29d]
AXL
  remaining activity at 1 µM: 110%
CAMK1D
  remaining activity at 1 µM: 89%
CDC42BPB
  remaining activity at 1 µM: 86%
CDK16/CycY
  remaining activity at 1 µM: 112%
CDK3/CycC
  remaining activity at 1 µM: 100%
CDK4/CycD1
  remaining activity at 1 µM: 108%
CDK5/p25NCK
  remaining activity at 1 µM: 92%
CDK7/CycH/MAT1
  remaining activity at 1 µM: 98%
CDK8/CycC
  remaining activity at 1 µM: 106%
CK2-alpha2
  remaining activity at 1 µM: 111%
COT
  remaining activity at 1 µM: 89%
DMPK
  remaining activity at 1 µM: 93%
ERBB4
  remaining activity at 1 µM: 103%
ERK7
  remaining activity at 1 µM: 102%
FGF-R2
  remaining activity at 1 µM: 94%
GRK7
  remaining activity at 1 µM: 107%
HRI
  remaining activity at 1 µM: 93%
IRAK4 (untagged)
  remaining activity at 1 µM: 89%
JAK2
  remaining activity at 1 µM: 80%
LYN
  remaining activity at 1 µM: 122%
MST4
  remaining activity at 1 µM: 108%
NIK
  remaining activity at 1 µM: 98%
PKC-beta1
  remaining activity at 1 µM: 116%
PKC-nu
  remaining activity at 1 µM: 90%
PRK1
  remaining activity at 1 µM: 94%
ROCK1
  remaining activity at 1 µM: 92%
TLK1
  remaining activity at 1 µM: 77%
WNK2
  remaining activity at 1 µM: 103%
mTOR
  remaining activity at 1 µM: 127%
